Format in all cases: cell-based
For experiment [1], the system named is Providencia rettgeri NCTC 7475. As to the kind of experiment: Detection of L-alanine peptidase activity on Columbia agar containing the substrate. On the set-up: key to C [head as printed; cells hold growth signs]: the sign ++ signifies very good growth; the sign + signifies good growth of the strain; the sign +/− signifies average growth of the strain; the sign − signifies absence of growth of the strain. The settings on record: substrate 50 mg/l in Columbia agar; 24 to 48 h at 37° C.

In experiment [2] the test system is Proteus mirabilis NCTC 10975. Described as above. As to conditions: substrate 50 mg/l in Columbia agar; 24 to 48 h at 37° C. More on the design: key to C [head as printed; cells hold growth signs]: the sign ++ signifies very good growth; the sign + signifies good growth of the strain; the sign +/− signifies average growth of the strain; the sign − signifies absence of growth of the strain.

For experiment [3], the system named is Streptococcus pyogenes NCTC 8306. The experiment is described as above. More on the design: key to G [head as printed; cells hold colony color]: I signifies colorless; key to C [head as printed; cells hold growth signs]: the sign ++ signifies very good growth; the sign + signifies good growth of the strain; the sign +/− signifies average growth of the strain; the sign − signifies absence of growth of the strain. The settings on record: substrate 50 mg/l in Columbia agar; 24 to 48 h at 37° C.

Experiment [4] deals with Salmonella hadar. The experiment is described as above. On the set-up: key to C [head as printed; cells hold growth signs]: the sign ++ signifies very good growth; the sign + signifies good growth of the strain; the sign +/− signifies average growth of the strain; the sign − signifies absence of growth of the strain. The settings on record: substrate 50 mg/l in Columbia agar; 24 to 48 h at 37° C.

For experiment [5], the system named is Pseudomonas aeruginosa NCTC 10662. The experiment is described as above. On the set-up: key to C [head as printed; cells hold growth signs]: the sign ++ signifies very good growth; the sign + signifies good growth of the strain; the sign +/− signifies average growth of the strain; the sign − signifies absence of growth of the strain. The settings on record: substrate 50 mg/l in Columbia agar; 24 to 48 h at 37° C.

In experiment [6] the test system is Listeria monocytogenes NCTC 11994. Described as above. More on the design: key to G [head as printed; cells hold colony color]: I signifies colorless; key to C [head as printed; cells hold growth signs]: the sign ++ signifies very good growth; the sign + signifies good growth of the strain; the sign +/− signifies average growth of the strain; the sign − signifies absence of growth of the strain. The settings on record: substrate 50 mg/l in Columbia agar; 24 to 48 h at 37° C.

The test system of experiment [7] is Klebsiella pneumoniae NCTC 10896. Described as above. More on the design: key to C [head as printed; cells hold growth signs]: the sign ++ signifies very good growth; the sign + signifies good growth of the strain; the sign +/− signifies average growth of the strain; the sign − signifies absence of growth of the strain. As to conditions: substrate 50 mg/l in Columbia agar; 24 to 48 h at 37° C.

Experiment [8] relates to Escherichia coli NCTC 10418. Described as above. More on the design: key to C [head as printed; cells hold growth signs]: the sign ++ signifies very good growth; the sign + signifies good growth of the strain; the sign +/− signifies average growth of the strain; the sign − signifies absence of growth of the strain. The settings on record: substrate 50 mg/l in Columbia agar; 24 to 48 h at 37° C.

The subject of experiment [9] is Staphylococcus aureus NCTC 6571. The description is as above. On the set-up: key to G [head as printed; cells hold colony color]: I signifies colorless; key to C [head as printed; cells hold growth signs]: the sign ++ signifies very good growth; the sign + signifies good growth of the strain; the sign +/− signifies average growth of the strain; the sign − signifies absence of growth of the strain. The settings on record: substrate 50 mg/l in Columbia agar; 24 to 48 h at 37° C.

Experiment [10] has as its system Pseudomonas putida. As to the kind of experiment: Detection of β-alanine peptidase activity (example 11), colony coloration. As to conditions: between 24 and 48 h of incubation; Applicant's collection.
Experiment [11] concerns Escherichia coli. The description is as above. The settings on record: between 24 and 48 h of incubation; Applicant's collection.
Experiment [12] concerns Pseudomonas aeruginosa. Described as above. The settings on record: between 24 and 48 h of incubation.
Experiment [13] deals with Burkholderia Gladioli LGM 6880. The description is as above. As to conditions: between 24 and 48 h of incubation; strain LGM 6880.
In experiment [14] the test system is Pseudomonas fluorescens. Described as above. The settings on record: between 24 and 48 h of incubation; Applicant's collection.
The subject of experiment [15] is Burkholderia cepacia LMG 18941. The experiment is described as above. The settings on record: between 24 and 48 h of incubation; strain LMG 18941.
Setting [16] is: strain of Applicant's collection (r9).
Setting [17] is: strain of Applicant's collection (r13).

Structures are written as SMILES.

`CCCCCc1c2nc3ccc(NC(=O)[C@H](C)NC(=O)OC(C)(C)C)cc3oc-2cc(=O)c1Cl` [Chlorinated L-alanyl compound, 7-N—(N′-t-butoxycarbonyl-L-alanyl)amino-2-chloro-1-pentylphenoxazin-3-one]: the “C [head as printed; cells hold growth signs]” value in [1] is recorded as “+”; in experiment [2], “+”; in experiment [3] it was “+/−”; in experiment [4], “+”; in experiment [5] it was “+”; in experiment [6], “+”. In addition, the “C [head as printed; cells hold growth signs]” value in [7], in experiment [8] and in experiment [9] was “+” in each case. Also, the “G [head as printed; cells hold colony color]” value in experiment [1] is reported as “pink/purple”; in experiment [2], “pink/purple”; in [3], “I”; in experiment [4], “pinl/purple”; in experiment [5], “pink/purple”; in experiment [6] it was “I”. Moreover, the “G [head as printed; cells hold colony color]” value in experiment [7] is “pink/purple”; in experiment [8] it was “pink/purple”; in experiment [9], “I”.
Turning to `CCCCCc1cc(=O)cc2oc3cc(NC(=O)[C@H](C)NC(=O)OC(C)(C)C)ccc3nc1-2` [Nonchlorinated L-alanyl compound, 7-N—(N″-t-butoxycarbonyl-L-alanyl)amino-1-pentylphenoxazin-3-one], the “C [head as printed; cells hold growth signs]” value in experiment [1] is “+”; in experiment [2], “+”; in [3], “−”; in [4], “+”; in experiment [5] it was “+”; in experiment [6], “−”. For the same compound, the “C [head as printed; cells hold growth signs]” value in experiment [7] was “+”; in experiment [8] it was “+”; in experiment [9], “−”. For the same compound, the “G [head as printed; cells hold colony color]” value in [1] is listed as “purple”; in experiment [2], “purple”; in [3], “I”; in [4] it was “purple”; in [5] it was “purple”; in [6], “I”. In addition, the “G [head as printed; cells hold colony color]” value was “purple” in [7], “purple” in [8] and “I” in [9].
Regarding `Cc1c2nc3ccc(NC(=O)CCN)cc3oc-2cc(=O)c1C.O=C(O)C(F)(F)F` [b-ala-DMP, 7-N-(β-Alanyl)amino-1,2-dimethylphenoxazin-3-one trifluoroacetate salt], the coloration entry is given as “colorless” in experiment [10]; “orange” in experiment [11]; “deep pink” in experiment [12] (strain ATCC 9027); “deep pink” in experiment [12] (strain ATCC 10145); “pink” in experiment [12] (strain ATCC 27853); “deep pink” in experiment [12] (setting [16]). In addition, the coloration result in experiment [12] (setting [17]) is on record as “colorless”; in experiment [13] it was “colorless”; in experiment [14] it was “colorless”; in experiment [15] it was “pale pink”.
With `COC(=O)c1c2oc3cc(NC(=O)CCNC(=O)OC(C)(C)C)ccc3nc-2c(C)c(Cl)c1=O` [b-ala-MCMP, methyl 7-N—(N′-t-butoxycarbonyl-β-alanyl)amino-1-methyl-2-chlorophenoxazin-3-one-4-carboxylate], the coloration entry is reported as “colorless” in [10]; “colorless” in experiment [11]; “pink-” in [12] (strain ATCC 9027); “violet” in [12] (strain ATCC 10145); “violet” in experiment [12] (strain ATCC 27853); “violet” in experiment [12] (setting [16]). Moreover, the coloration result in [12] (setting [17]), in experiment [13], in experiment [14] and in experiment [15] was “colorless” each time.

These data come from US7932050B2, “Enzymatic substrates derived from phenoxazinone and their use as developers in detection of microorganisms with peptidase activity” (bioMerieux, priority 2004, dated 2011).
